According to patent publication US7932290B2, “Method for the treatment of metabolic disorders” (Wellstat Biologics Corporation, priority 2003, dated 2011):

Experiments:
db/db mice [1] = experiment: Antidiabetic effects in db/db mice, Example C (17 days daily oral dosing); format: in vivo, mouse
Text: (§1) C57BL/Ksola (db/db) mice have a defect in leptin signaling, leading to hyperphagia, obesity and diabetes. Moreover, unlike ob/ob mice on a C57BL/6J background, db/db mice on a C57BLKS background undergo failure of their insulin-producing pancreatic islet cells, resulting in progression from hyperinsulinemia (associated with peripheral insulin resistance) to hypoinsulinemic diabetes.
(§2) Male obese (db/db homozygote) C57BL/Ksola mice approximately 8 weeks of age, were obtained from Jackson Labs (Bar Harbor, Me.) and sorted into groups of 7 animals each animals such that the body weights (40-45 g) and serum glucose levels (≧300 mg/dl in fed state) were similar between groups. A minimum of 7 days was allowed for adaptation after arrival. All animals were maintained under controlled temperature (23° C.), relative humidity (50±5%) and light (7:00-19:00), and allowed free access to standard chow (Formulab Diet 5008, Quality Lab Products, Elkridge, Md.) and water.
Treatment cohorts were given daily oral doses of vehicle (1% hydroxypropylmethylcellulose), Compounds BI, CF, CG, or phenylacetate for 17 days. At the end of the treatment period, blood samples were collected and serum glucose and triglycerides were measured.

[2] = target: T1, Mouse PPARγ LBD fusion protein (Mus musculus, UniProt P37238); experiment: Transcription activation potential, GAL4 luciferase reporter in Hepa1.6 cells; format: cell-based
T1 sequence (P37238 238-503): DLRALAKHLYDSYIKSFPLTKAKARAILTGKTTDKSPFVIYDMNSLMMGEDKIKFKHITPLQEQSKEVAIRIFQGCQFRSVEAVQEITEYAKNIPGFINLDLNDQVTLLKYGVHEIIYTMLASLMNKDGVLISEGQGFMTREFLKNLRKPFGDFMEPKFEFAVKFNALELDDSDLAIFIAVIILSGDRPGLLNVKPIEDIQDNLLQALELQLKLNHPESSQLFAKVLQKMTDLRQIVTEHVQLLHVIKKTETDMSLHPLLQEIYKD
Procedure: Cells were seeded in 24 well plates the day prior to transfection at 5×10^4−2×10^5 cells/well, depending upon cell type. Cells were transfected using Lipofectamine 2000 reagent from Invitrogen. A total of 0.8 μg DNA/well was added to 50 μL of Optimem Reduced Serum media (serum free; Gibco). Lipofectamine 2000 was added (2.5 μL/well) to another tube containing 50 μL of Optimem media. Plasmid DNA was added at a ratio of 4:3 (reporter:activator); where appropriate, salmon sperm DNA was substituted for activator expressing plasmid. […] DNA constructs containing the mouse PPARα or PPARγ LBD fused to the GAL4 DNA binding domain were also used. The two solutions were incubated at room temperature for 5 min, and then combined. The combined solution was incubated at room temperature for approximately 30 min. Cells were washed once with PBS, and 100 μL of transfection mix added to each well. Plates were incubated at 37° C. in a 5% CO2 incubator for 4.5 hr, followed by aspiration of the transfection mix, with plates refed using EMEM complete media (supplemented with 10% FBS, 1× Glutamine). 24 hr post-transfection, plates were treated with the appropriate compounds in EMEM complete media, followed by washing once with PBS and addition of 100 μL 1× reporter lysis buffer/well (Promega) 24 hr after treatment. Plates went through one freeze/thaw cycle prior to analysis. Approximately 10 μL of lysate was added to 100 μL of firefly luciferase substrate, mixed by pipetting, and analyzed on a luminometer for 10 s using the integration function (relative luciferase units/RLU) or on a Microbeta Trilux (luciferase counts per second/LCPS). Each treatment was performed in triplicate, and in multiple, separate experiments.

[3] = tested on: male ob/ob mouse model of Type II diabetes; experiment: Antidiabetic effects in ob/ob mice (serum chemistry after 2 weeks daily oral dosing); format: in vivo; parameters: key to Glucose ± SEM: serum glucose in mg/dl; Triglycerides ± SEM / Free Fatty Acids ± SEM: unit not given here; details: for Glucose / Glucose (% of Control): 2 weeks; for Glucose ± SEM: Table 15; for reduction in blood glucose (in words) / reduction in free fatty acids (in words) / reduction in triglycerides (in words): 2 weeks daily oral dosing
Procedure: Obese (ob/ob) mice have a defect in the protein leptin, a regulator of appetite and fuel metabolism, leading to hyperphagia, obesity and diabetes.
Male obese (ob/ob homozygote) C57BL/6J mice, approximately 8 weeks of age, were obtained from Jackson Labs (Bar Harbor, Me.) and randomly assigned into groups of 5 animals each such that the body weights (45-50 g) and serum glucose levels (≧300 mg/dl in fed state) were similar between groups. A minimum of 7 days was allowed for adaptation after arrival. All animals were maintained under controlled temperature (23° C.), relative humidity (50±5%) and light (7:00-19:00), and allowed free access to standard chow (Formulab Diet 5020 Quality Lab Products, Elkridge, Md.) and water.
Treatment cohorts were given daily oral doses of vehicle (1% hydroxypropyl-methylcellulose), Compounds BI, CF, CA, CB, CC, or CD for 2 weeks. At the end of the treatment period 100 μl of venous blood was withdrawn in a heparinized capillary tube from the retro-orbital sinus of ob/ob mice for serum chemistry analysis.

db/db mice [4] = experiment: Antidiabetic effects in db/db mice, Example B (2 weeks daily oral dosing); format: in vivo, mouse
Text: as §1, with “db/db” for “C57BL/Ksola (db/db)”, “C57BL/KS” for “C57BLKS”
as §2, with “randomly assigned” for “sorted”, “5-7” for “7 animals each”, “(50-55” for “(40-45”, “groups; male lean (db/+heterozygote) mice served as cohort controls.” for “groups.”
Treatment cohorts were given daily oral doses of Vehicle (1% hydroxypropylmethylcellulose), Compounds BI, CE, BT, BV, […] or Fenofibrate for 2 weeks. At the end of the treatment period 100 μl of venous blood was withdrawn in a heparinized capillary tube from the retro-orbital sinus of db/db mice for serum chemistry analysis.

[5] = serum, 2 weeks daily oral, dose not given in Table 17 (see Table 16)

SMILES: Cc1cccc(C)c1COc1cccc(C(=O)O)c1 [Compound CG, 3-(2,6-Dimethylbenzyloxy)benzoic acid]
- Glucose mg/dL (±SEM) (db/db mice [1]; 100 mg/kg daily oral): 753 ± 24 mg/dL
- Triglycerides (db/db mice [1]; 100 mg/kg daily oral): 166 ± 14 mg/dL

SMILES: Cc1cccc(C)c1COc1cccc(C(=O)CCC(=O)O)c1 [Compound BI, 4-(3-(2,6-Dimethylbenzyloxy)phenyl)-4-oxobutyric acid]
- Glucose mg/dL (±SEM) (db/db mice [1]; 100 mg/kg daily oral): 472 ± 54 mg/dL
- Triglycerides (db/db mice [1]; 100 mg/kg daily oral): 116 ± 4 mg/dL
- Glucose mg/dL (±SEM) (db/db mice [1]; 150 mg/kg daily oral): 348 ± 67 mg/dL
- Triglycerides (db/db mice [1]; 150 mg/kg daily oral): 90 ± 6 mg/dL
- transcription activation potential (luciferase) ± standard deviation ([2]; 1 μM): 210 ± 51 RLU
- transcription activation potential (luciferase) ± standard deviation ([2]; 3 μM): 256 ± 33 RLU
- transcription activation potential (luciferase) ± standard deviation ([2]; 5 μM): 254 ± 81 RLU
- transcription activation potential (luciferase) ± standard deviation ([2]; 7 μM): 265 ± 61 RLU
- transcription activation potential (luciferase) ± standard deviation ([2]; 10 μM): 355 ± 53 RLU
- transcription activation potential (luciferase) ± standard deviation ([2]; 30 μM): 441 ± 203 RLU
- transcription activation potential (luciferase) ± standard deviation ([2]; 100 μM): 820 ± 353 RLU
- Free Fatty Acids ± SEM ([3]; 30 mg/kg): 1272.8 ± 32.5
- Triglycerides ± SEM ([3]; 30 mg/kg): 66.6 ± 3.6
- Glucose ([3]; 30 mg/kg daily oral): 301.4 ± 29.0 mg/dL
- Glucose (% of Control) ([3]; 30 mg/kg daily oral): 71.0 ± 7.0 % of Control
- Glucose ± SEM ([3]; 30 mg/kg): 301.4 ± 29.0
- Glucose ([3]; 60 mg/kg daily oral): 248.8 ± 20.0 mg/dL
- Glucose (% of Control) ([3]; 60 mg/kg daily oral): 59.0 ± 5.0 % of Control
- Free Fatty Acids ± SEM ([3]; 100 mg/kg): 1245.4 ± 20.0
- Triglycerides ± SEM ([3]; 100 mg/kg): 55.0 ± 3.4
- Glucose ([3]; 100 mg/kg daily oral): 196.3 ± 6.0 mg/dL
- Glucose (% of Control) ([3]; 100 mg/kg daily oral): 46.0 ± 1.0 % of Control
- reduction in blood glucose (in words) ([3]; 100 mg/kg): significant reduction
- reduction in free fatty acids (in words) ([3]; 100 mg/kg): significant reduction
- reduction in triglycerides (in words) ([3]; 100 mg/kg): significant reduction
- Glucose ± SEM ([3]; 100 mg/kg): 196.3 ± 6.0
- Glucose (% of Control) (db/db mice [4]; 100 mg/kg daily oral, 2 weeks): 50 ± 6 % of Control
- Glucose (db/db mice [4]; nonfasting, 100 mg/kg daily oral, 2 weeks): 347.0 ± 43.1 mg/dL
- Free Fatty Acids ± SEM (db/db mice [4]; [5]): 1997.2 ± 196.4 µM
- Triglycerides ± SEM (db/db mice [4]; [5]): 77.8 ± 5.3 mg/dL

SMILES: Cc1cccc(C)c1COc1cccc(CC(=O)O)c1 [Compound CF, 3-(2,6-Dimethylbenzyloxy)phenylacetic acid]
- Glucose mg/dL (±SEM) (db/db mice [1]; 30 mg/kg daily oral): 586 ± 31 mg/dL
- Triglycerides (db/db mice [1]; 30 mg/kg daily oral): 156 ± 20 mg/dL
- Glucose mg/dL (±SEM) (db/db mice [1]; 60 mg/kg daily oral): 604 ± 36 mg/dL
- Triglycerides (db/db mice [1]; 60 mg/kg daily oral): 120 ± 13 mg/dL
- Glucose mg/dL (±SEM) (db/db mice [1]; 100 mg/kg daily oral): 391 ± 61 mg/dL
- Triglycerides (db/db mice [1]; 100 mg/kg daily oral): 92 ± 6 mg/dL
- transcription activation potential (luciferase) ± standard deviation ([2]; 1 μM): 361 ± 138 RLU
- transcription activation potential (luciferase) ± standard deviation ([2]; 3 μM): 602 ± 144 RLU
- transcription activation potential (luciferase) ± standard deviation ([2]; 5 μM): 710 ± 87 RLU
- transcription activation potential (luciferase) ± standard deviation ([2]; 7 μM): 786 ± 418 RLU
- transcription activation potential (luciferase) ± standard deviation ([2]; 10 μM): 1140 ± 111 RLU
- transcription activation potential (luciferase) ± standard deviation ([2]; 30 μM): 1253 ± 554 RLU
- transcription activation potential (luciferase) ± standard deviation ([2]; 100 μM): 1534 ± 608 RLU
- Glucose ([3]; 60 mg/kg daily oral): 161.2 ± 14.0 mg/dL
- Glucose (% of Control) ([3]; 60 mg/kg daily oral): 38.0 ± 3.0 % of Control
- reduction in blood glucose (in words) ([3]; 60 mg/kg): significant reduction
- reduction in free fatty acids (in words) ([3]; 60 mg/kg): significant reduction
- reduction in triglycerides (in words) ([3]; 60 mg/kg): significant reduction
